# Key:
# physchem = details: pH 7.4
# human recombinant COX-2 = target: T1, human recombinant COX-2 (Homo sapiens, UniProt P35354); assay: COX Fluorescent Inhibitor Screening Assay, COX-2; type: biochemical; details: in duplicate
# T1 construct: purchased Cayman Chemical Company
# T1 sequence (P35354 18-604): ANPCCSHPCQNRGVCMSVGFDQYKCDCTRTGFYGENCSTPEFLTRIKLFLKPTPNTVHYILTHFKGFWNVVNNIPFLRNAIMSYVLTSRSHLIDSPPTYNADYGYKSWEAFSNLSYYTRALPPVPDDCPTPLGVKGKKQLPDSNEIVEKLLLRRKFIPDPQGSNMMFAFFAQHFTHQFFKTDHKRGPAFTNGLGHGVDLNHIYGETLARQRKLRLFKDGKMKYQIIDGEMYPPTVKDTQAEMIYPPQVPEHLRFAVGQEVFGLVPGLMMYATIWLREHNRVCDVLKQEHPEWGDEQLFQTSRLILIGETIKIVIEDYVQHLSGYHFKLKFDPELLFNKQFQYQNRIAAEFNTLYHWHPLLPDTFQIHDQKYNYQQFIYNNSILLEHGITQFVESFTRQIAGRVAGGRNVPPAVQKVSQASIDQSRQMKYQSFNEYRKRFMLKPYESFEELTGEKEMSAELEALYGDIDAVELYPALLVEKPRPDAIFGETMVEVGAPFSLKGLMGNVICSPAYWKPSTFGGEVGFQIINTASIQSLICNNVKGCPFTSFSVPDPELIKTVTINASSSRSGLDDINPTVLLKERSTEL
# Description: (§1) COX inhibition activity against ovine COX-1 and human COX-2 was determined using the fluorescence-based COX assay COX Fluorescent Inhibitor Screening Assay Kit (Cayman Chemical Company, Ann Arbor, MI, USA) according to the manufacturer’s instructions as previously reported by us. All compounds were screened at a concentration of 100 µM in duplicate.
# [1] = test system: MDA-MB-231 triple-negative breast adenocarcinoma; assay: Cell viability, MTT assay, MDA-MB-231; type: cell-based, human; details: Homo sapiens, MDA-MB-231; 72 h, mean ± SD
# Description: (§2) Five human cell lines (A375 melanoma, A549 lung adenocarcinoma, HCT116 and HT29 colorectal carcinoma, MDA-MB-231 triple-negative breast adenocarcinoma) were used to study the antitumor effects of the di-tert-butylphenols and their respective carborane analogs. All selected cell lines were derived from inflammation-associated tumors.
# (§3) After the incubation period, the supernatant was discarded from the wells, and the cells were washed two times with 200 µL of PBS. Next, MTT solution at a final concentration of 0.5 mg/mL was added and incubated at 37 °C until purple formazan crystals were formed (30 min to one hour). After incubation, the dye was discarded. In order to dissolve the formed formazan crystals DMSO was added, and the absorbance was measured at λmax = 540 nm, with the reference/background wavelength of 670 nm. All results are expressed as a percentage of the control value which was arbitrary set to 100%. After 72 h treatment, cells were washed with 200 µL of PBS and fixed with 4% paraformaldehyde (PFA) for 15 min at room temperature (RT). Next, cells were stained with 1% CV solution. After 20 min, cells were washed in tap water and dried on air. Dye was dissolved in 33% acetic acid and the absorbance was measured at λmax = 540 nm, with the reference/background wavelength of 670 nm. Results were expressed as a percentage of the control value which was arbitrary set to 100%.
# (§4) 1. General methods, materials, and procedures
# (§5) 1.1.1. Reagents and cells
# (§6) Reagents and cells were obtained from following manufacturers: Capricorn Scientific GmbH (Hessen, Germany) – Culture medium RPMI-1640, Dulbecco's Modified Eagle Medium (DMEM), and fetal bovine serum (FBS). Serva (Heidelberg, Germany) – Paraformaldehyde (PFA). Sigma (St. Louis, MO, USA) – Ethylenediaminetetraacetic acid (EDTA), Dimethyl sulfoxide (DMSO), chloroquine, CV, Triton X-100, RNase, PI, PBS, 3-MA, CFSE, and fluorescent mounting medium. AppliChem (MO, USA) –MTT. Thermo Fisher Scientific (Waltham, MA, USA) – DHR. R&D Systems (Minneapolis, MN, USA) – ApoStat. BD (Pharmingen, San Diego, SAD) – Annexin V-FITC (AnnV). Biological Industries (Cromwell, CT, USA) – Penicillin Streptomycin solution. American Type Culture Collection (ATCC, Manassas, Virginia, USA) – Human lung carcinoma (A549), human breast adenocarcinoma (MDA-MB-231), human colorectal ade-nocarcinoma (HT-29), human colorectal carcinoma (HCT116) and human melanoma (A375).
# (§7) Cell lines (A375, HCT116, HT-29 and MDA-MB-231) were cultivated in HEPES-buffered RPMI-1640 medium while A549 cell line was cultivated in Dulbecco's Modified Eagle Medium (DMEM) which were previously supplemented with 10% heat-inactivated FBS, penicillin (100 units/mL), and streptomycin (100 μg/mL). All cells were kept at 37 °C in a humidified atmosphere with 5% CO2. For viability determi-nation cells were seeded at following densities in 96-well plates: 4 x 10^3 cells/well (A375, HT-29 and MDA-MB-231), 5 x 10^3 cells/well (HCT116), and 3 x 10^3 cells/well (A549). […]
# (§8) Afterwards, cells were washed with phosphate-buffered saline (PBS) and stained with AnnV (15 μg/mL) and PI (15 μg/mL). After 15 min incubation at room temperature (RT) protected from light the cells were resuspended in AnnV-binding buffer and analysed using flow cytom-etry. HCT116 cells were incubated with pan-caspase inhibitor Apostat for 30 min at 37 °C to determine whether detected apoptosis was mediated by caspase activation. Afterwards, cells were washed with PBS and analyzed using flow cytometry. HCT116 cells were stained with 1 µg/mL of AO solution for 15 min at 37 °C to detect the presence of autophagic cell death. Afterwards cells were washed with PBS, resuspended and analyzed by flow cytometry (CyFlow® Space Partec using the PartecFloMax® software
# [2] = test system: HCT116 colorectal carcinoma; assay: Cell viability, crystal violet (CV) assay, HCT116; type: cell-based; details: Homo sapiens, HCT-116; 72 h, mean ± SD
# Description: as §2, §3, §4, §5
# as §6, with “American Type Culture Collection (ATCC, Manassas, Virginia, USA) – Human lung carcinoma (A549), human breast adenocarcinoma (MDA-MB-231), human colorectal ade-nocarcinoma (HT-29), human colorectal carcinoma (HCT116) and human melanoma (A375).” left out
# as §8, with “HCT116 cells were stained with 1 µg/mL of AO solution for 15 min at 37 °C to detect the presence of autophagic cell death.” left out
# A549 lung adenocarcinoma [3] = assay: Cell viability, crystal violet (CV) assay, A549; type: cell-based; details: Homo sapiens, 72 h, mean ± SD
# Description: as §2, §3, §4, §5
# as §6, with “American Type Culture Collection (ATCC, Manassas, Virginia, USA) – Human lung carcinoma (A549), human breast adenocarcinoma (MDA-MB-231), human colorectal ade-nocarcinoma (HT-29), human colorectal carcinoma (HCT116) and human melanoma (A375).” left out
# as §8, with “HCT116 cells were stained with 1 µg/mL of AO solution for 15 min at 37 °C to detect the presence of autophagic cell death.” left out
# A375 melanoma [4] = assay: Cell viability, crystal violet (CV) assay, A375; type: cell-based; details: Homo sapiens, A-375; 72 h, mean ± SD
# Description: as §2, §3, §4, §5
# as §6, with “American Type Culture Collection (ATCC, Manassas, Virginia, USA) – Human lung carcinoma (A549), human breast adenocarcinoma (MDA-MB-231), human colorectal ade-nocarcinoma (HT-29), human colorectal carcinoma (HCT116) and human melanoma (A375).” left out
# as §8, with “HCT116 cells were stained with 1 µg/mL of AO solution for 15 min at 37 °C to detect the presence of autophagic cell death.” left out
# ovine COX-1 = target: T2, ovine COX-1 (Ovis aries, UniProt P05979); assay: COX Fluorescent Inhibitor Screening Assay, COX-1; type: biochemical; details: in duplicate
# T2 construct: purchased Cayman Chemical Company
# T2 sequence (P05979 25-600): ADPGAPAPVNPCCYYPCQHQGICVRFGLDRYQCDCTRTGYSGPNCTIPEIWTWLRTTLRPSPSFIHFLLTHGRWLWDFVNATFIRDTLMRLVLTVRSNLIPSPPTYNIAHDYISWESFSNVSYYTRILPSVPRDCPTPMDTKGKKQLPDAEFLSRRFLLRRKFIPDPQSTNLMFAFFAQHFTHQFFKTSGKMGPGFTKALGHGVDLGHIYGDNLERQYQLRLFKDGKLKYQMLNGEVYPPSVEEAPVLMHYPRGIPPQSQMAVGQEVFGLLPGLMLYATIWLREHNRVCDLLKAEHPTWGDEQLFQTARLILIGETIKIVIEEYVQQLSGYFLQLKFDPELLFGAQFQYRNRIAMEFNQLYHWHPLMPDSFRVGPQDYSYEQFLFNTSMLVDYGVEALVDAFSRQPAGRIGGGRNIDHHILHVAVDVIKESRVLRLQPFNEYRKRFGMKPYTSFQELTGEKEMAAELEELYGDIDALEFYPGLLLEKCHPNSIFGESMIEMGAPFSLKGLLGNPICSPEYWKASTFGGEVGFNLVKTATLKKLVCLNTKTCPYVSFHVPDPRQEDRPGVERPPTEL
# Description: as §1
# A375 melanoma [5] = assay: Cell viability, MTT assay, A375; type: cell-based, human; details: Homo sapiens, A-375; 72 h, mean ± SD
# Description: as §2, §3, §4, §5, §6, §7
# (§9) Afterwards, cells were washed with phosphate-buffered saline (PBS) and stained with AnnV (15 μg/mL) and PI (15 μg/mL). […]
# (§10) PBS and analyzed using flow cytometry. HCT116 cells were stained with 1 µg/mL of AO solution for 15 min at 37 °C to detect the presence of autophagic cell death. Afterwards cells were washed with PBS, resuspended and analyzed by flow cytometry (CyFlow® Space Partec using the PartecFloMax® software
# [6] = test system: HCT116 colorectal carcinoma; assay: Cell viability, MTT assay, HCT116; type: cell-based, human; details: Homo sapiens, HCT-116; 72 h, mean ± SD
# Description: as §2, §3, §4, §5, §6, §7, §9, §10
# [7] = test system: HT-29 colorectal carcinoma; assay: Cell viability, MTT assay, HT-29; type: cell-based, human; details: Homo sapiens, HT-29; 72 h, mean ± SD
# Description: as §2, §3, §4, §5, §6, §7, §8
# [8] = test system: HT-29 colorectal carcinoma; assay: Cell viability, crystal violet (CV) assay, HT-29; type: cell-based; details: Homo sapiens, 72 h, mean ± SD
# Description: as §2, §3, §4, §5
# as §6, with “American Type Culture Collection (ATCC, Manassas, Virginia, USA) – Human lung carcinoma (A549), human breast adenocarcinoma (MDA-MB-231), human colorectal ade-nocarcinoma (HT-29), human colorectal carcinoma (HCT116) and human melanoma (A375).” left out
# as §8, with “HCT116 cells were stained with 1 µg/mL of AO solution for 15 min at 37 °C to detect the presence of autophagic cell death.” left out
# [9] = test system: MDA-MB-231 triple-negative breast adenocarcinoma; assay: Cell viability, crystal violet (CV) assay, MDA-MB-231; type: cell-based; details: Homo sapiens, 72 h, mean ± SD
# Description: as §2, §3, §4, §5
# as §6, with “American Type Culture Collection (ATCC, Manassas, Virginia, USA) – Human lung carcinoma (A549), human breast adenocarcinoma (MDA-MB-231), human colorectal ade-nocarcinoma (HT-29), human colorectal carcinoma (HCT116) and human melanoma (A375).” left out
# as §8, with “HCT116 cells were stained with 1 µg/mL of AO solution for 15 min at 37 °C to detect the presence of autophagic cell death.” left out
# A549 lung adenocarcinoma [10] = assay: Cell viability, MTT assay, A549; type: cell-based, human; details: Homo sapiens, A549; 72 h, mean ± SD
# Description: as §2, §3, §4, §5, §6, §7, §8
# [11] = served as references for the HPLC method; cited from earlier work
inhibition at 100 µM (human recombinant COX-2) [%],inhibition at 100 µM (ovine COX-1) [%],SMILES,chromatographic logD (physchem),IC50 [1] [µM],IC50 [2] [µM],IC50 (A549 lung adenocarcinoma [3]) [µM],IC50 (A375 melanoma [4]) [µM],IC50 (A375 melanoma [5]) [µM],IC50 [6] [µM],IC50 [7] [µM],IC50 [8] [µM],IC50 [9] [µM],IC50 (A549 lung adenocarcinoma [10]) [µM],logD7.4 of HPLC references [11]
86,38,"CCN1CC/C(=C\c2cc(C(C)(C)C)c(O)c(C(C)(C)C)c2)S1(=O)=O [Compound S-2474, 2,6-Bis(1,1-dimethylethyl)-4-[(E)-(2-ethyl-1,1-dioxido-5-isothiazolidinylidene)methyl]phenol]",3.75,34.8 ± 1.7,23.7 ± 1.9,17.9 ± 1.2,19.2 ± 0.7,13.2 ± 2.7,17.5 ± 1,16.1 ± 1.1,23.8 ± 1.7,43.5 ± 1.8,16.2 ± 1.2,
,,"CC(C)(C)c1cc(C=C2CCOC2=O)cc(C(C)(C)C)c1O [KME-4, 3-([3,5-bis(1,1-dimethylethyl)-4-hydroxyphenyl]methylene)dihydro-2(3H)-furanone]",3.79,80.9 ± 7.3,36.2 ± 1.9,36.3 ± 2.8,36.4 ± 1.3,13.8 ± 0.6,18.4 ± 4.6,18.5 ± 1.5,36.2 ± 1.9,88.6 ± 2.4,21.9 ± 0.7,
,,CC1=C(C(=O)Nc2ccccc2)S(=O)(=O)CCO1 [Oxycarboxin],,,,,,,,,,,,1.13

# Reference: article PMC10254233, “Synthesis and In Vitro Biological Evaluation of p-Carborane-Based Di-tert-butylphenol Analogs” (Molecules, 2023)
